Laboratory results from PubChem BioAssay AID180 (DTP/NCI, 2004).
Several values for one entry are separate records, joined by “and”; a condition that tells them apart may be missing. Equal values may be shown once.

Tested on: BDF1 mice, Adenocarcinoma 755 s.c., tumor weight T/C
Assay: NCI In Vivo Anticancer Drug Screen. Data for tumor model Adenocarcinoma 755 (subcutaneous) in B6D2F1 (BDF1) mice
Conditions: endpoint: mean tumor weight, vehicle: carboxymethylcellulose (CMC), higher = larger tumour
Outline: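 Compound activity was tested in mice carrying transplanted tumors. Survival or tumor size was measured, and each value is the treated-group measurement divided by that of the vehicle-treated control group (T/C).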

Question: Which T/C (dose: 0.37 mg/kg/injection, schedule: Q01DX011 (ip)) does the source give for Nc1nc(SCc2ccccc2)c2[nH]cnc2n1 here?
Answer: 114 % of control

Question: What about the T/C (dose: 0.37 mg/kg/injection, schedule: Q01DX011 (oral)) of the same molecule?
Answer: 71 % of control

Question: What about the T/C (dose: 0.75 mg/kg/injection, schedule: Q01DX011 (ip)) of the same molecule?
Answer: 38 % of control

Question: What about the T/C (dose: 0.75 mg/kg/injection, schedule: Q01DX011 (oral)) of the same molecule?
Answer: 52 % of control

Question: What about the T/C (dose: 1.0 mg/kg/injection, schedule: Q#A X021 (ip)) of the same molecule?
Answer: 45 % of control

Question: And the T/C (dose: 1.25 mg/kg/injection, schedule: Q01DX011 (ip))?
Answer: 53 % of control

Question: What about the T/C (dose: 1.5 mg/kg/injection, schedule: Q01DX011 (im)) of the same molecule?
Answer: 69 % of control

Question: What about the T/C (dose: 1.5 mg/kg/injection, schedule: Q01DX011 (ip)) of the same molecule?
Answer: 41 % of control

Question: What about the T/C (dose: 1.5 mg/kg/injection, schedule: Q01DX011 (oral)) of the same molecule?
Answer: 61 % of control

Question: What about the T/C (dose: 1.75 mg/kg/injection, schedule: Q01DX001 (ip)) of the same molecule?
Answer: 94 % of control and 114 % of control

Question: What about the T/C (dose: 2.0 mg/kg/injection, schedule: Q01DX006 (iv)) of the same molecule?
Answer: 91 % of control

Question: What about the T/C (dose: 2.0 mg/kg/injection, schedule: Q01DX011 (im)) of the same molecule?
Answer: 38 % of control

Question: What about the T/C (dose: 2.0 mg/kg/injection, schedule: Q01DX011 (ip)) of the same molecule?
Answer: 33 % of control

Question: What about the T/C (dose: 2.0 mg/kg/injection, schedule: Q01DX011 (sc)) of the same molecule?
Answer: 56 % of control

Question: What about the T/C (dose: 2.0 mg/kg/injection, schedule: Q#A X021 (ip)) of the same molecule?
Answer: 15 % of control

Question: And the T/C (dose: 2.5 mg/kg/injection, schedule: Q01DX011 (ip))?
Answer: 32 % of control

Question: And the T/C (dose: 3.0 mg/kg/injection, schedule: Q01DX011 (im))?
Answer: 12 % of control

Question: What about the T/C (dose: 3.0 mg/kg/injection, schedule: Q01DX011 (ip)) of the same molecule?
Answer: 5 % of control

Question: What about the T/C (dose: 3.0 mg/kg/injection, schedule: Q01DX011 (oral)) of the same molecule?
Answer: 19 % of control

Question: And the T/C (dose: 3.5 mg/kg/injection, schedule: Q01DX001 (ip))?
Answer: 112 % of control and 115 % of control

Question: What about the T/C (dose: 4.0 mg/kg/injection, schedule: Q01DX006 (iv)) of the same molecule?
Answer: 40 % of control

Question: And the T/C (dose: 4.0 mg/kg/injection, schedule: Q01DX011 (im))?
Answer: 10 % of control

Question: What about the T/C (dose: 4.0 mg/kg/injection, schedule: Q01DX011 (ip)) of the same molecule?
Answer: 8 % of control

Question: And the T/C (dose: 4.0 mg/kg/injection, schedule: Q01DX011 (sc))?
Answer: 13 % of control

Question: What about the T/C (dose: 7.0 mg/kg/injection, schedule: Q01DX001 (ip)) of the same molecule?
Answer: 20 % of control and 33 % of control

Question: What about the T/C (dose: 8.0 mg/kg/injection, schedule: Q01DX006 (iv)) of the same molecule?
Answer: 13 % of control

Question: And the T/C (dose: 8.0 mg/kg/injection, schedule: Q01DX011 (im))?
Answer: 3 % of control

Question: And the T/C (dose: 8.0 mg/kg/injection, schedule: Q01DX011 (ip))?
Answer: 3 % of control

Question: And the T/C (dose: 8.0 mg/kg/injection, schedule: Q01DX011 (sc))?
Answer: 4 % of control

Question: What about the T/C (dose: 8.0 mg/kg/injection, schedule: Q03DX004 (ip)) of the same molecule?
Answer: 25 % of control

Question: And the T/C (dose: 14.0 mg/kg/injection, schedule: Q07DX002 (ip))?
Answer: 34 % of control

Question: What about the T/C (dose: 16.0 mg/kg/injection, schedule: Q01DX006 (iv)) of the same molecule?
Answer: 7 % of control

Question: What about the T/C (dose: 16.0 mg/kg/injection, schedule: Q01DX011 (im)) of the same molecule?
Answer: 2 % of control

Question: What about the T/C (dose: 16.0 mg/kg/injection, schedule: Q01DX011 (ip)) of the same molecule?
Answer: 3 % of control

Question: What about the T/C (dose: 16.0 mg/kg/injection, schedule: Q01DX011 (sc)) of the same molecule?
Answer: 3 % of control

Question: And the T/C (dose: 16.0 mg/kg/injection, schedule: Q03DX004 (ip))?
Answer: 8 % of control

Question: And the T/C (dose: 24.0 mg/kg/injection, schedule: Q01DX006 (iv))?
Answer: 4 % of control

Question: And the T/C (dose: 24.0 mg/kg/injection, schedule: Q01DX011 (im))?
Answer: 4 % of control

Question: And the T/C (dose: 24.0 mg/kg/injection, schedule: Q01DX011 (ip))?
Answer: 3 % of control

Question: What about the T/C (dose: 24.0 mg/kg/injection, schedule: Q01DX011 (sc)) of the same molecule?
Answer: 3 % of control

Question: What about the T/C (dose: 28.0 mg/kg/injection, schedule: Q01DX001 (ip)) of the same molecule?
Answer: 12 % of control

Question: What about the T/C (dose: 28.0 mg/kg/injection, schedule: Q07DX002 (ip)) of the same molecule?
Answer: 30 % of control

Question: What about the T/C (dose: 32.0 mg/kg/injection, schedule: Q01DX006 (iv)) of the same molecule?
Answer: 5 % of control

Question: And the T/C (dose: 32.0 mg/kg/injection, schedule: Q01DX011 (im))?
Answer: 3 % of control

Question: And the T/C (dose: 48.0 mg/kg/injection, schedule: Q01DX011 (sc))?
Answer: 2 % of control

Question: And the T/C (dose: 56.0 mg/kg/injection, schedule: Q01DX001 (ip))?
Answer: 10 % of control

Question: And the T/C (dose: 56.0 mg/kg/injection, schedule: Q07DX002 (ip))?
Answer: 18 % of control

Question: What about the T/C (dose: 64.0 mg/kg/injection, schedule: Q01DX011 (sc)) of the same molecule?
Answer: 3 % of control

Question: And the T/C (dose: 112.0 mg/kg/injection, schedule: Q01DX001 (ip))?
Answer: 10 % of control

Question: And the T/C (dose: 112.0 mg/kg/injection, schedule: Q07DX002 (ip))?
Answer: 1 % of control

Question: Which T/C (dose: 125.0 mg/kg/injection, schedule: Q01DX011 (ip)) does the source give for CNC(C)=O here?
Answer: 79 % of control and 86 % of control

Question: What about the T/C (dose: 250.0 mg/kg/injection, schedule: Q01DX011 (ip)) of the same molecule?
Answer: 104 % of control and 85 % of control

Question: And the T/C (dose: 1000.0 mg/kg/injection, schedule: Q01DX011 (ip))?
Answer: 60 % of control and 82 % of control
